The values below come from patent US7521444B2, “Compounds for the treatment of hepatitis C” (Bristol-Myers Squibb Company, priority 2007, dated 2009).

Structures are written as SMILES.

The term IC50 denotes the concentration that inhibits the measured activity by half. Usually EC50 stands for the midpoint of the concentration-response curve. The low end stands for greater potency, the high end for weaker potency.

In one test the target is T1, HCV NS5B (Hepatitis C virus genotype 1b, UniProt Q9WMX2).
T1 construct: The protein was expressed with an 18 amino acid C-terminal truncation to enhance the solubility; made in house; host or cells: E. coli BL21(DE3), pET21a
Briefly: HCV NS5B RdRp enzyme assay (standard or modified). It counts as biochemical. Conditions: HCV NS5B RdRp genotype 1b enzyme; standard or modified assay not stated. The method, then: HCV NS5B RdRp cloning, expression, and purification. The cDNA encoding the NS5B protein of HCV, genotype 1b, was cloned into the pET21a expression vector. The protein was expressed with an 18 amino acid C-terminal truncation to enhance the solubility. The E. coli competent cell line BL21(DE3) was used for expression of the protein. Cultures were grown at 37° C. for ˜4 hours until the cultures reached an optical density of 2.0 at 600 nm. The cultures were cooled to 20° C. and induced with 1 mM IPTG. Fresh ampicillin was added to a final concentration of 50 μg/ml and the cells were grown overnight at 20° C.
Cell pellets (3 L) were lysed for purification to yield 15-24 mgs of purified NS5B. The lysis buffer consisted of 20 mM Tris-HCl, pH 7.4, 500 mM NaCl, 0.5% triton X-100, 1 mM DTT, 1 mM EDTA, 20% glycerol, 0.5 mg/ml lysozyme, 10 mM MgCl2, 15 ug/ml deoxyribonuclease I, and Complete TM protease inhibitor tablets (Roche). After addition of the lysis buffer, frozen cell pellets were resuspended using a tissue homogenizer. To reduce the viscosity of the sample, aliquots of the lysate were sonicated on ice using a microtip attached to a Branson sonicator. The sonicated lysate was centrifuged at 100,000×g for 1 hr at 4° C. and filtered through a 0.2 μm filter unit (Corning).
The protein was purified using two sequential chromatography steps: Heparin sepharose CL-6B and polyU sepharose 4B (Pharmacia). The chromatography buffers were identical to the lysis buffer but contained no lysozyme, deoxyribonuclease I, MgCl2 or protease inhibitor and the NaCl concentration of the buffer was adjusted according to the requirements for charging the protein onto the column. Each column was eluted with a NaCl gradient which varied in length from 5-50 column volumes depending on the column type. After the final chromatography step, the resulting purity of the enzyme is >90% based on SDS-PAGE analysis. The enzyme was aliquoted and stored at −80° C.
Standard HCV NS5B RdRp enzyme assay. HCV RdRp genotype 1b assays were run in a final volume of 60 μl in 96 well plates (Corning 3600). The assay buffer is composed of 20 mM Hepes, pH 7.5, 2.5 mM KCl, 2.5 mM MgCl2, 1 mM DTT, 1.6 U RNAse inhibitor (Promega N2515), 0.01 mg/ml BSA (Sigma B6917), and 2% glycerol. All compounds were serially diluted (3-fold) in DMSO and diluted further in water such that the final concentration of DMSO in the assay was 2%. HCV RdRp genotype 1b enzyme was used at a final concentration of 28 nM. A polyA template was used at 6 nM, and a biotinylated oligo-dT12 primer was used at 180 nM final concentration. Template was obtained commercially (Amersham 27-4110). Biotinylated primer was prepared by Sigma Genosys. 3H-UTP was used at 0.6 μCi (0.29 μM total UTP). Reactions were initiated by the addition of enzyme, incubated at 30° C. for 60 min, and stopped by adding 25 μl of 50 mM EDTA containing SPA beads (4 μg/μl, Amersham RPNQ 0007). Plates were read on a Packard Top Count NXT after >1 hr incubation at room temperature.
Modified HCV NS5B RdRp enzyme assay. A modified enzyme assay was performed essentially as described for the standard enzyme assay except for the following: The biotinylated oligo dT12 primer was precaptured on streptavidin-coated SPA beads by mixing primer and beads in assay buffer and incubating at room temperature for one hour. Unbound primer was removed after centrifugation. The primer-bound beads were resuspended in 20 mM Hepes buffer, pH 7.5 and used in the assay at final concentrations of 20 nM primer and 0.67 μg/μl beads. Order of addition in the assay: enzyme (1.75 nM) was added to diluted compound followed by the addition of a mixture of template (0.36 nM), 3H-UTP (0.6 μCi, 0.29 μM), and primer-bound beads, to initiate the reaction; concentrations given are final. Reactions were allowed to proceed for 4 hours at 30° C.
IC50 values for compounds were determined using seven different [I]. […]

Another test deals with HCV replicon cells. Briefly: HCV replicon FRET / luciferase assay. It counts as cell-based. As to conditions: 50% reduction in FRET or luciferase activity. The protocol: FRET Assay Preparation. The HCV FRET screening assay was performed in 96-well cell culture plates. The FRET peptide (Anaspec, Inc.) (Taliani et al., Anal. Biochem. 1996, 240, 60-67) contains a fluorescence donor, EDANS, near one end of the peptide and an acceptor, DABCYL, near the other end. The fluorescence of the peptide is quenched by […] resonance energy transfer (RET) between the donor and the acceptor, but as the NS3 protease cleaves the peptide the products are released from RET quenching and the fluorescence of the donor becomes apparent. The assay reagent was made as follows: 5× cell Luciferase cell culture lysis reagent from Promega (#E153A) diluted to 1× with dH2O, NaCl added to 150 mM final, the FRET peptide diluted to 20 μM final from a 2 mM stock.
To prepare plates, HCV replicon cells, with or without a Renilla luciferase reporter gene, were trypsinized and plated in a 96-well plate with titrated test compounds added in columns 3 through 12; columns 1 and 2 contained a control compound (HCV control inhibitor), and the bottom row contained cells with DMSO only. The plates were then placed in a CO2 incubator at 37° C.
Assays. Subsequent to addition of the test compounds described above (FRET Assay Preparation), at various times the plate was removed and Alamar blue solution (Trek Diagnostics, #00-100) was added to measure cellular toxicity. After reading in a Cytoflour 4000 instrument (PE Biosystems), plates were rinsed with PBS and then used for FRET assay by the addition of 30 ul of the FRET peptide assay reagent described above (FRET Assay Preparation) per well. The plate was then placed into the Cytoflour 4000 instrument which had been set to 340 excite/490 emission, automatic mode for up to 20 cycles and the plate read in a kinetic mode. Typically, the signal to noise using an endpoint analysis after the reads was at least three-fold. Alternatively, after Alamar blue reading, plates were rinsed with PBS, then used for luciferase assay using the Promega Dual-Glo Luciferase Assay System or the Promega EnduRen Live Cell Substrate assay.
Compound analysis was performed by quantification of the relative HCV replicon inhibition and the relative cytotoxicity values. To calculate cytoxicity values, the average Alamar Blue fluorescence signals from the control wells were set as 100% non-toxic. The individual signals in each of the compound test wells were then divided by the average control signal and multiplied by 100% to determine […]. To calculate the HCV replicon inhibition values, an average background value was obtained from the two wells containing the highest amount of HCV control inhibitor at the end of the assay period. These numbers were similar to those obtained from naïve Huh-7 cells. The background numbers were then subtracted from the average signal obtained from the control wells and this number was used as 100% activity. The individual signals in each of the compound test wells were then divided by the averaged control values after background subtraction and multiplied by 100% to determine percent activity. EC50 values were calculated as the concentration which caused a 50% reduction in FRET or luciferase activity. The two numbers generated for the compound plate, percent cytoxicity and percent activity, were used to determine compounds of interest for further analysis.

T1 sequence (Q9WMX2 2420-2992): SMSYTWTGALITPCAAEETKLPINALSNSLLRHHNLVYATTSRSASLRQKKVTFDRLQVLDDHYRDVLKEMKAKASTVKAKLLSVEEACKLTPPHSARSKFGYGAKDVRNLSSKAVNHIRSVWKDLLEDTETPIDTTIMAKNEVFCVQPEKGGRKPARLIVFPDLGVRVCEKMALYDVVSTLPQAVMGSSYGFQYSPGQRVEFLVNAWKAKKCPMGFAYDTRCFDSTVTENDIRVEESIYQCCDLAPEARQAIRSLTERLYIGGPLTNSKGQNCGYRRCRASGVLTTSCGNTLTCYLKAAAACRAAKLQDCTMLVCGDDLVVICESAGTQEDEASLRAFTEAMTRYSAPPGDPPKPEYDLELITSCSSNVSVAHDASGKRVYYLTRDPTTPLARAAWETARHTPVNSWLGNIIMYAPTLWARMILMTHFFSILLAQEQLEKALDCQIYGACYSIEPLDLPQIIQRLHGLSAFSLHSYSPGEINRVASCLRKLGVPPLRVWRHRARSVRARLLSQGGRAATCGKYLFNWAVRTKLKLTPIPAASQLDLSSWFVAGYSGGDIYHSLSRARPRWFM

At HCV NS5B, `COc1ccc2c(c1)C1CC1(C(=O)N1CCC[C@H]3CNC[C@H]31)Cn1c-2c(C2CCCCC2)c2ccc(C(=O)NS(=O)(=O)N(C)C)cc21` (stereo partly shown) displayed an IC50 of 4.58 to 500 nM. In addition, the EC50 in the test on HCV replicon cells (Hepatitis C virus) fell in the range of 4.58 to 500 nM.
As for `COc1ccc2c(c1)C1CC1(C(=O)N1CCN3CCCC3C1)Cn1c-2c(C2CCCCC2)c2ccc(C(=O)NS(=O)(=O)N(C)C)cc21` (stereo not shown), the IC50 against HCV NS5B fell in the range of 4.58 to 500 nM. In the test with HCV replicon cells (Hepatitis C virus), this compound gave an EC50 of 4.58 to 500 nM.
Compound `COc1ccc2c(c1)C1CC1(C(=O)N1CCN3CCCC3C1)Cn1c-2c(C2CCCCC2)c2ccc(C(=O)NS(=O)(=O)C3CC3)cc21` (stereo not shown) came in with an IC50 on HCV NS5B of 4.58 to 500 nM. Besides, in the test on HCV replicon cells (Hepatitis C virus), the half-maximal effective concentration (EC50) was in the range of 4.58 to 500 nM.
At HCV NS5B, `COc1ccc2c(c1)C1CC1(C(=O)N1CC3CN(C(=O)N4CCCC4)CC3C1)Cn1c-2c(C2CCCCC2)c2ccc(C(=O)NS(=O)(=O)N(C)C)cc21` (stereo not shown) returned an IC50 of 4.58 to 500 nM. This compound also showed an EC50 with HCV replicon cells (Hepatitis C virus) of 4.58 to 500 nM.
In turn, `COc1ccc2c(c1)C1CC1(C(=O)N1CC3CNCC3C1)Cn1c-2c(C2CCCCC2)c2ccc(C(=O)NS(N)(=O)=O)cc21` (stereo not shown) came in with an IC50 against HCV NS5B of 4.58 to 500 nM. The EC50 in the test with HCV replicon cells (Hepatitis C virus) is more than 500 nM.
At HCV NS5B, `COc1ccc2c(c1)C1CC1(C(=O)N1CCN3CCC[C@@H]3C1)Cn1c-2c(C2CCCCC2)c2ccc(C(=O)NS(=O)(=O)N3CCOCC3)cc21` (stereo partly shown) registered an IC50 of 4.58 to 500 nM. In addition, the EC50 in the test on HCV replicon cells (Hepatitis C virus) fell in the range of 4.58 to 500 nM.
Turning to `CCS(=O)(=O)NC(=O)c1ccc2c(C3CCCCC3)c3n(c2c1)CC1(C(=O)N2CCN4CCCC4C2)CC1c1cc(OC)ccc1-3` (stereo not shown), the IC50 against HCV NS5B is 4.58 to 500 nM. Also, the EC50 in the test with HCV replicon cells (Hepatitis C virus) lay within 4.58 to 500 nM.
Compound `COc1ccc2c(c1)C1CC1(C(=O)N1CC3CCCN(C(C)=O)C3C1)Cn1c-2c(C2CCCCC2)c2ccc(C(=O)NS(=O)(=O)N(C)C)cc21` (stereo not shown) [drawing 36] came in with an IC50 at HCV NS5B of 4.58 to 500 nM. Besides, the EC50 with HCV replicon cells was 4.58 to 500 nM.
